Reference: ChEMBL document CHEMBL1149188, “Synthesis of 2,4-diamino-6-[2'-O-(omega-carboxyalkyl)oxydibenz[b,f]azepin-5-yl]methylpteridines as potent and selective inhibitors of Pneumocystis carinii, Toxoplasma gondii, and Mycobacterium avium dihydrofolate reductase” (J Med Chem, 2004)

What was measured:
Dihydrofolate reductase [1] = biological target: T1, Dihydrofolate reductase (Mycobacterium avium, UniProt O30463); experiment: Concentration required to inhibit the Mycobacterium avium Dihydrofolate reductase by 50% was determined
T1 sequence (O30463 whole entry): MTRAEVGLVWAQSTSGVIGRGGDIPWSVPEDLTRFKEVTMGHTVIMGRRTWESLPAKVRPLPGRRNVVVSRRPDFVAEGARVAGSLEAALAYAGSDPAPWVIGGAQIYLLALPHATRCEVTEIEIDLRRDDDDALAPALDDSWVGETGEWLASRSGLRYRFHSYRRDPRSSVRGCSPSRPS

[2] = Selectivity index was determined by the ratio for IC50 of human DHFR to the IC50 of Mycobacterium avium DHFR
[3] = Selectivity index was determined by the ratio for IC50 of rat liver DHFR to the IC50 of Toxoplasma gondii DHFR
[4] = Selectivity index was determined by the ratio for IC50 of rat liver DHFR to the IC50 of Mycobacterium avium DHFR
[5] = Selectivity index was determined by the ratio for IC50 of rat liver DHFR to the IC50 of Pneumocystis carinii DHFR; Range: 11-16
[6] = Selectivity index was determined by the ratio for IC50 of rat liver DHFR to the IC50 of Toxoplasma gondii DHFR; Range: 12-19
Dihydrofolate reductase [7] = biological target: T1, Dihydrofolate reductase; experiment: Concentration required to inhibit the Mycobacterium avium Dihydrofolate reductase by 50% was determined; Range: 1.2-1.4
[8] = Selectivity index was determined by the ratio for IC50 of rat liver DHFR to the IC50 of Mycobacterium avium DHFR; Range: 260-370
[9] = biological target: T2, Bifunctional dihydrofolate reductase-thymidylate synthase (Toxoplasma gondii, UniProt Q07422); experiment: Concentration required to inhibit the Toxoplasma gondii Dihydrofolate reductase by 50% was determined; Range: 23-30
T2 sequence (Q07422 whole entry): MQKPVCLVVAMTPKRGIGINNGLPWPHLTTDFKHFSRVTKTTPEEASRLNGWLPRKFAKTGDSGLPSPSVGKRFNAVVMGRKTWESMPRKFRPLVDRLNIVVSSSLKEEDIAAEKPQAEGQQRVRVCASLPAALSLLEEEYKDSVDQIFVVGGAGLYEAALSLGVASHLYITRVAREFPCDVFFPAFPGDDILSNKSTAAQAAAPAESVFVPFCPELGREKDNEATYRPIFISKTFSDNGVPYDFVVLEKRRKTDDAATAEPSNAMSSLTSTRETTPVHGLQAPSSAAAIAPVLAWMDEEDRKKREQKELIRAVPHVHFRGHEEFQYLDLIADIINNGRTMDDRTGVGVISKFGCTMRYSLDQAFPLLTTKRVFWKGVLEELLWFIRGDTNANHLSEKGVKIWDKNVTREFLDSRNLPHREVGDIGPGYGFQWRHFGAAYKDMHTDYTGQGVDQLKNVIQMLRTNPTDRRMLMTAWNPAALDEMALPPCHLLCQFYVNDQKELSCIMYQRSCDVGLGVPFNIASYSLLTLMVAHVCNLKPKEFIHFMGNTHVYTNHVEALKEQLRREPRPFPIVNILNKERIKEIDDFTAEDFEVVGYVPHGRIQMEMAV

Dihydrofolate reductase [10] = biological target: T3, Dihydrofolate reductase (Pneumocystis carinii, UniProt P16184)
T3 sequence (P16184 whole entry): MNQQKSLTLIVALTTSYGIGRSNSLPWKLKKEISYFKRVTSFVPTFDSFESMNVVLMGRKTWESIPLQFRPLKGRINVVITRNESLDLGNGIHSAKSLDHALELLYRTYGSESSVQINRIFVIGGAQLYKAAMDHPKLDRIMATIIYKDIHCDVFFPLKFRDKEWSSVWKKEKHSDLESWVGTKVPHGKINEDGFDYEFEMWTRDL

Dihydrofolate reductase [11] = biological target: T4, Dihydrofolate reductase (Rattus norvegicus, UniProt Q920D2); experiment: Concentration required to inhibit the rat liver Dihydrofolate reductase by 50% was determined; Range: 370-440
T4 sequence (Q920D2 whole entry): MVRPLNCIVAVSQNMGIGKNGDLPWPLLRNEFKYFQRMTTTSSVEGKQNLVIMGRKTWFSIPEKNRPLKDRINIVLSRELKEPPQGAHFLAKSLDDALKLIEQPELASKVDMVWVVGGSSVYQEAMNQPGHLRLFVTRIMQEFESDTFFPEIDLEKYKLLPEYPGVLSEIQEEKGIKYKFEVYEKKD

[12] = Selectivity index was determined by the ratio for IC50 of rat liver DHFR to the IC50 of Mycobacterium avium DHFR; Range: 140-230
[13] = Selectivity index was determined by the ratio for IC50 of rat liver DHFR to the IC50 of Toxoplasma gondii DHFR; Range: 55-65
Dihydrofolate reductase [14] = biological target: T4, Dihydrofolate reductase; experiment: Concentration required to inhibit the rat liver Dihydrofolate reductase by 50% was determined; Range: 1100-1500
[15] = Selectivity index was determined by the ratio for IC50 of rat liver DHFR to the IC50 of Pneumocystis carinii DHFR; Range: 80-150
Dihydrofolate reductase [16] = biological target: T3, Dihydrofolate reductase; experiment: Concentration required to inhibit the Pneumocystis carinii Dihydrofolate reductase by 50% was determined; Range: 9.8-12
Dihydrofolate reductase [17] = biological target: T1, Dihydrofolate reductase; experiment: Concentration required to inhibit the Mycobacterium avium Dihydrofolate reductase by 50% was determined; Range: 6.5-8.0
[18] = biological target: T2, Bifunctional dihydrofolate reductase-thymidylate synthase; experiment: Concentration required to inhibit the Toxoplasma gondii Dihydrofolate reductase by 50% was determined; Range: 20-23
[19] = biological target: T2, Bifunctional dihydrofolate reductase-thymidylate synthase; experiment: Concentration required to inhibit the Toxoplasma gondii Dihydrofolate reductase by 50% was determined (reported by Hoffman-LaRoche group)
Dihydrofolate reductase [20] = biological target: T5, Dihydrofolate reductase (Homo sapiens, UniProt P00374); experiment: Concentration required to inhibit the human Dihydrofolate reductase by 50% was determined
T5 sequence (P00374 whole entry): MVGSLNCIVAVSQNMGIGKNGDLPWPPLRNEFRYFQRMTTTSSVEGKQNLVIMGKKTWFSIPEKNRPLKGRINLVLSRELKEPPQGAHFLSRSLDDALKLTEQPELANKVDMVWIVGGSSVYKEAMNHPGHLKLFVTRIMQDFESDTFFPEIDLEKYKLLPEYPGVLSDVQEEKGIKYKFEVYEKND

Dihydrofolate reductase [21] = biological target: T5, Dihydrofolate reductase; experiment: Concentration required to inhibit the human Dihydrofolate reductase by 50% was determined (reported by Hoffman-LaRoche group)
Dihydrofolate reductase [22] = biological target: T4, Dihydrofolate reductase
Dihydrofolate reductase [23] = biological target: T1, Dihydrofolate reductase
Dihydrofolate reductase [24] = biological target: T3, Dihydrofolate reductase; remark: listed apart in the source
Description: Concentration required to inhibit the Pneumocystis carinii Dihydrofolate reductase by 50% was determined; Range: 0.88-1.2

[25] = biological target: T2, Bifunctional dihydrofolate reductase-thymidylate synthase
[26] = Selectivity index was determined by the ratio for IC50 of rat liver DHFR to the IC50 of Toxoplasma gondii DHFR; Range: 37-48
Dihydrofolate reductase [27] = biological target: T4, Dihydrofolate reductase; experiment: Concentration required to inhibit the rat liver Dihydrofolate reductase by 50% was determined; Range: 1100-1200
[28] = biological target: T2, Bifunctional dihydrofolate reductase-thymidylate synthase; experiment: Concentration required to inhibit the Toxoplasma gondii Dihydrofolate reductase by 50% was determined; Range: 25-30
Dihydrofolate reductase [29] = biological target: T3, Dihydrofolate reductase; experiment: Concentration required to inhibit the Pneumocystis carinii Dihydrofolate reductase by 50% was determined; Range: 19-29
Dihydrofolate reductase [30] = biological target: T1, Dihydrofolate reductase; experiment: Concentration required to inhibit the Mycobacterium avium Dihydrofolate reductase by 50% was determined; Range: 3.6-4.4
[31] = Selectivity index was determined by the ratio for IC50 of rat liver DHFR to the IC50 of Mycobacterium avium DHFR; Range: 250-330
[32] = Selectivity index was determined by the ratio for IC50 of rat liver DHFR to the IC50 of Pneumocystis carinii DHFR; Range: 12-63
[33] = biological target: T2, Bifunctional dihydrofolate reductase-thymidylate synthase; experiment: Concentration required to inhibit the Toxoplasma gondii Dihydrofolate reductase by 50% was determined; […]
Dihydrofolate reductase [34] = biological target: T4, Dihydrofolate reductase; experiment: Concentration required to inhibit the rat liver Dihydrofolate reductase by 50% was determined; […]
Dihydrofolate reductase [35] = biological target: T3, Dihydrofolate reductase; experiment: Concentration required to inhibit the Pneumocystis carinii Dihydrofolate reductase by 50% was determined; Range: 58-110
[36] = Selectivity index was determined by the ratio for IC50 of rat liver DHFR to the IC50 of Toxoplasma gondii DHFR; Range: 53-113
[37] = Selectivity index was determined by the ratio for IC50 of rat liver DHFR to the IC50 of Mycobacterium avium DHFR; […]
[38] = biological target: T2, Bifunctional dihydrofolate reductase-thymidylate synthase; remark: listed apart in the source
Description: Concentration required to inhibit the Toxoplasma gondii Dihydrofolate reductase by 50% was determined; Range: 8.9-11

Dihydrofolate reductase [39] = biological target: T1, Dihydrofolate reductase; remark: listed apart in the source
Dihydrofolate reductase [40] = biological target: T3, Dihydrofolate reductase; remark: listed apart in the source
Description: Concentration required to inhibit the Pneumocystis carinii Dihydrofolate reductase by 50% was determined; Range: 0.92-1.3

Dihydrofolate reductase [41] = biological target: T4, Dihydrofolate reductase; remark: listed apart in the source
[42] = Selectivity index was determined by the ratio for IC50 of rat liver DHFR to the IC50 of Toxoplasma gondii DHFR; Range: 10-25
Dihydrofolate reductase [43] = biological target: T1, Dihydrofolate reductase; remark: listed apart in the source
Description: Concentration required to inhibit the Mycobacterium avium Dihydrofolate reductase by 50% was determined; Range: 6.2-11

Dihydrofolate reductase [44] = biological target: T4, Dihydrofolate reductase; experiment: Concentration required to inhibit the rat liver Dihydrofolate reductase by 50% was determined; Range: 250-300
[45] = Selectivity index was determined by the ratio for IC50 of rat liver DHFR to the IC50 of Mycobacterium avium DHFR; Range: 23-48
[46] = Selectivity index was determined by the ratio for IC50 of rat liver DHFR to the IC50 of Pneumocystis carinii DHFR; Range: 10-17
Dihydrofolate reductase [47] = biological target: T3, Dihydrofolate reductase; experiment: Concentration required to inhibit the Pneumocystis carinii Dihydrofolate reductase by 50% was determined; Range: 18-25
[48] = biological target: T2, Bifunctional dihydrofolate reductase-thymidylate synthase; remark: listed apart in the source
Description: Concentration required to inhibit the Toxoplasma gondii Dihydrofolate reductase by 50% was determined; Range: 12-24

Dihydrofolate reductase [49] = biological target: T4, Dihydrofolate reductase; experiment: Concentration required to inhibit the rat liver Dihydrofolate reductase by 50% was determined
[50] = biological target: T2, Bifunctional dihydrofolate reductase-thymidylate synthase; experiment: Concentration required to inhibit the Toxoplasma gondii Dihydrofolate reductase by 50% was determined

CCCOc1cc(NCc2cnc3nc(N)nc(N)c3c2C)cc(OCCC)c1
IC50 (Dihydrofolate reductase [1]): 0.19 nM | SI [2]: 7300

COc1ccc(OC)c(CCc2cnc3nc(N)nc(N)c3c2C)c1
SI [3]: 98

CCc1nc(N)nc(N)c1-c1ccc(Cl)c(/N=N/N(CCOC(C)=O)Cc2ccccc2)c1
IC50 (Dihydrofolate reductase [1]): < 1 nM | SI [4]: > 1000

Nc1nc(N)c2nc(CN3c4ccccc4C=Cc4cc(O)ccc43)cnc2n1
SI [5]: 13 | SI [6]: 16 | IC50 (Dihydrofolate reductase [7]): 1.3 nM | SI [8]: 320 | IC50 [9]: 26 nM | IC50 (Dihydrofolate reductase [10]): 31 nM | IC50 (Dihydrofolate reductase [11]): 410 nM

Nc1nc(N)c2nc(CN3c4ccccc4C=Cc4cc(OCCCCC(=O)O)ccc43)cnc2n1
SI [12]: 180 | SI [13]: 62 | IC50 (Dihydrofolate reductase [14]): 1300 nM | SI [15]: 120 | IC50 (Dihydrofolate reductase [16]): 11 nM | IC50 (Dihydrofolate reductase [17]): 7.2 nM | IC50 [18]: 21 nM

CCOc1cc(Cc2cnc(N)nc2N)cc(OCC)c1-n1cccc1 [EPIROPRIM]
IC50 [19]: 900 nM | IC50 (Dihydrofolate reductase [20]): 600 µM | IC50 (Dihydrofolate reductase [1]): 4.1 nM | IC50 (Dihydrofolate reductase [21]): 600 µM | SI [3]: 670

Nc1nc(N)c2nc(CN3c4ccccc4C=Cc4cc(OCc5ccc(C(=O)O)cc5)ccc43)cnc2n1
IC50 (Dihydrofolate reductase [22]): 580 nM | IC50 (Dihydrofolate reductase [23]): 0.75 nM | IC50 (Dihydrofolate reductase [24]): 1 nM | IC50 [25]: 22 nM

Nc1nc(N)c2nc(CN3c4ccccc4C=Cc4cc(OCCC(=O)O)ccc43)cnc2n1
SI [26]: 39 | IC50 (Dihydrofolate reductase [27]): 1100 nM | IC50 [28]: 28 nM | IC50 (Dihydrofolate reductase [29]): 24 nM | IC50 (Dihydrofolate reductase [30]): 4 nM | SI [31]: 280 | SI [32]: 46

Nc1nc(N)c2nc(CN3c4ccccc4C=Cc4ccccc43)cnc2n1
IC50 [33]: 39 nM | IC50 (Dihydrofolate reductase [34]): 3 µM | IC50 (Dihydrofolate reductase [35]): 79 nM | SI [36]: 77 | SI [37]: 250

Nc1nc(N)c2nc(CN3c4ccccc4C=Cc4cc(OCCCC(=O)O)ccc43)cnc2n1
IC50 [38]: 9.9 nM | IC50 (Dihydrofolate reductase [39]): 2 nM | IC50 (Dihydrofolate reductase [40]): 1.1 nM | IC50 (Dihydrofolate reductase [41]): 1500 nM

Nc1nc(N)c2nc(CN3c4ccccc4C=Cc4cc(OCC(=O)O)ccc43)cnc2n1
SI [42]: 16 | IC50 (Dihydrofolate reductase [43]): 8.2 nM | IC50 (Dihydrofolate reductase [44]): 280 nM | SI [45]: 34 | SI [46]: 13 | IC50 (Dihydrofolate reductase [47]): 21 nM | IC50 [48]: 17 nM

Nc1nc(N)c2nc(CSc3ccc(Sc4ccccc4)cc3)cnc2n1
IC50 (Dihydrofolate reductase [49]): 250 µM | IC50 [50]: 770 nM | SI [3]: 320
